Data published in patent US20220054532A1, “VETERINARY COMPOSITIONS AND METHODS OF USE THEREFOR” (priority 2019, published 2022).

How the values were obtained:
Type in all cases: in vivo
[1] = test system: cats suffering from joint inflammation; assay: Example 4: joint inflammation, thermal imaging (feline); conditions: over the inflamed joint, 60 days BID
Text: (§1) This example examines the ability of embodiments of the invention versus Cosequin® to treat joint inflammation.
(§2) The first patient group is twenty dogs suffering from joint inflammation. The second patient group is twenty cats suffering from joint inflammation. The third patient group is twenty horses suffering from joint inflammation. Each patient group is broken into five groups of four animals. The first groups receive Cosequin® as the sole active agent; the second groups receive a composition comprising HMW HA as the sole active agent; the third groups receive a composition comprising CBD as the sole active agent; the fourth groups receive a composition comprising HMW HA and CBD as the active agents; and the fifth groups receive a composition comprising HMW HA, CBD, Boswellia, and superoxide dismutase (“SOD”) as the active agents.
(§3) Each composition is administered for a period of sixty (60) days, BID. Efficacy is determined by a decrease in body temperature over the inflamed joint, as measured by thermal imaging (e.g., via Digatherm device). Thermal imaging is performed on days 0 (“Initial Score”), 15, 30, 45, and 60 (“Final Score”) of treatment.
The following feline scores are observed and the results depicted in FIG. 4b: […]

[2] = test system: dogs suffering behavior aberrations and/or anxiety; assay: Example 5: behavior aberrations and anxiety, C-BARQ (canine); conditions: C-BARQ day 0 vs 60, SID, 0 (no improvement) to 3 (marked improvement)
Text: This example examines the ability of embodiments of the invention versus Clomicalm® to reduce behavior aberrations and anxiety.
The first patient group is twenty dogs suffering behavior aberrations and/or anxiety, as determined by the canine behavioral assessment and research questionnaire (“C-BARQ”). See, e.g., P. Wiener et al., Use of questionnaire-based data to assess dog personality, 16 JOURNAL OF VETERINARY BEHAVIOR 81-85 (2016). The second patient group is twenty cats suffering behavior aberrations and/or anxiety, as determined by the feline behavioral assessment and research questionnaire (“Fe-BARQ”).
Each group is broken into five groups of four animals. The first group receives Clomicalm® as the sole active agent; the second group receives a composition comprising HMW HA as the sole active agent; the third group receives a composition comprising CBD as the sole active agent; the fourth group receives a composition comprising HMW HA and CBD as the active agents; and the fifth group receives a composition comprising HMW HA, CBD, valerian root, and scutillaria as the active agents.
Each composition is administered for a period of sixty (60) days, once a day (“SID”). Owners complete the species-appropriate C-BARQ or Fe-BARQ on days 0 and 60 of treatment. The results from the overall questionnaire are averaged and characterized as no improvement (score of 0), mild improvement (score of 1), moderate improvement (score of 2), or marked improvement (score of 3).
The following canine scores are observed and the results depicted in FIG. 5a: […]

[3] = test system: dogs with a history of severe, chronic skin issues, atopy, pruritis, yeast overgrowth, and/or infection; assay: Example 16: skin conditions (itch score) and side effects in dogs (CBD Complex); conditions: for Average Side Effect Score: dogs with skin conditions, 60 days BID; for Initial Itch Score / Final Itch Score: itch scale 0 (no itching) to 10 (extremely severe); for Initial Itch Score: day 0; for Final Itch Score: day 60, BID
Text: This example examines the ability of embodiments of the invention versus prednisone to treat skin conditions.
The patient group is twenty-four dogs with a history of severe, chronic skin issues, atopy, pruritis, yeast overgrowth, and/or infection, as diagnosed by their referring veterinarian. The patient group is broken into six groups of four animals. The first group receives prednisone as the sole active agent; the second group receives a composition comprising prednisone and HMW HA as the active agents; the third group receives a composition comprising HMW HA as the sole active agent; the fourth group receives a composition comprising CBD as the sole active agent; the fifth group receives a composition comprising HMW HA and CBD Complex as the active agents; and the sixth group receives a composition comprising HMW HA, CBD Complex, quercetin, and nettles as the active agents.
Each composition is administered for a period of sixty (60) days, BID. Each dog is evaluated on days 0 (“Initial Score”), 20, 40, and 60 (“Final Score”) of treatment. The results are averaged and characterized on a scale of 0 (no itching—normal dog), 2 (very mild itching—only occasional episodes), 4 (mild itching), 6 (moderate itching—regular episodes), 8 (severe itching—prolonged episodes), to 10 (extremely severe itching—almost continuous).

[4] = test system: dogs suffering from osteoarthritis; assay: Example 9: pain relief and side effects in canine osteoarthritis (CBD Complex); conditions: dogs with osteoarthritis, 4 weeks of administration, group average
Text: This example examines the ability of various compositions to minimize pain and examines the level of adverse side effects of each composition.
At the outset of the study, participants receive a full physical examination, including weight measurement, thigh circumference, and CBC/blood chemistries. Because osteoarthritis is not only a disease of pain, but one characterized by behavioral, appetite, anxiety/aggression, family socialization, and sleep aberrations, the pet's owners are familiarized with the pain scale (canine orthopedic index) and additional behavioral assessment log.
The patient group is twenty-four dogs suffering from osteoarthritis, broken into eight groups of three dogs. The first group receives a control composition with no active agent; the second group receives a composition comprising HA as the sole active agent; the third group receives a composition comprising HMW HA as the sole active agent; the fourth group receives a composition comprising CBD as the sole active agent; the fifth group receives a composition comprising HA and CBD as the active agents; the sixth group receives a composition comprising HMW HA and CBD Complex as the active agents; the seventh group receives a composition comprising Rimadyl as the active agent; and the eighth group receives a composition comprising Meloxicam as the active agent.
Each composition is administered for a period of four (4) weeks. The owner completes the electronic log questionnaire each week. At the end of the 4-week study, participants have another full physical examination, including weight measurement, thigh circumference, and CBC/blood chemistries, with an exit interview of the owners to gain final impressions.
Each group is evaluated for pain scores and the scores averaged. The following scores are observed and the results depicted in FIG. 9: […]

[5] = test system: horses suffering from joint inflammation; assay: Example 4: joint inflammation, thermal imaging (equine); conditions: over the inflamed joint, 60 days BID
Text: as §1, §2, §3
The following equine scores are observed and the results depicted in FIG. 4c: […]

[6] = test system: horses suffering from joint inflammation; assay: Example 12: joint inflammation, thermal imaging (equine, CBD Complex); conditions: over the inflamed joint, 60 days BID
Text: as §1
(§4) The first patient group is twenty dogs suffering from joint inflammation. The second patient group is twenty cats suffering from joint inflammation. The third patient group is twenty horses suffering from joint inflammation. Each patient group is broken into five groups of four animals. The first groups receive Cosequin® as the sole active agent; the second groups receive a composition comprising HMW HA as the sole active agent; the third groups receive a composition comprising CBD as the sole active agent; the fourth groups receive a composition comprising HMW HA and CBD Complex as the active agents; and the fifth groups receive a composition comprising HMW HA, CBD Complex, Boswellia, and superoxide dismutase (“SOD”) as the active agents.
as §3
The following equine scores are observed and the results depicted in FIG. 12c: […]

[7] = test system: dogs suffering from joint inflammation; assay: Example 12: joint inflammation, thermal imaging (canine, CBD Complex); conditions: over the inflamed joint, 60 days BID
Text: as §1, §4, §3
The following canine scores are observed and the results depicted in FIG. 12a: […]

| Molecule | Reduction in Temperature (° F.) [1] | Improvement Score [2] | Average Side Effect Score [3] | Initial Itch Score [3] | Final Itch Score [3] | Average Pain Score [4] | Average Side Effect Score [4] | Average Pain Score ([4]; listed as CBD alone) | Average Side Effect Score ([4]; listed as CBD alone) | Reduction in Temperature (° F.) [5] | Reduction in Temperature (° F.) [6] | Reduction in Temperature (° F.) [7] | Average Pain Score ([4]; listed as HMW HA alone) | Average Side Effect Score ([4]; listed as HMW HA alone) |
| --- | --- | --- | --- | --- | --- | --- | --- | --- | --- | --- | --- | --- | --- | --- |
| C=C(C)[C@@H]1CCC(C)=C[C@H]1c1c(O)cc(CCCCC)cc1O [CBD Alone, 2-[(1R,6R)-3-methyl-6-prop-1-en-2-ylcyclohex-2-en-1-yl]-5-pentylbenzene-1,3-diol] | 2.0 ° F. | 2 | .5 | 9 | 5 | 19 | 0.5 | not especially effective in reducing pain | even lower degree of adverse side effects | 1.6 ° F. | 1.6 ° F. | 1.7 ° F. |  |  |
| hyaluronic acid [HMW HA Alone] | 2.3 ° F. | 1 | 4 | 9 | 7 | 16 | 4 |  |  | 2.1 ° F. | 2.1 ° F. | 1.9 ° F. | only slightly reduce pain | low degree of adverse side effects |
